Laboratory results as given in patent publication US11919893B1, “7-(4-((5-(2-bromobenzylideneamino)-2-thioxo-1,3,4-thiadiazol-3(2H)-yl)methyl) piperazin-1-yl)-1-cyclopropyl-6-fluoro-4-oxo-1,4-dihydroquinoline-3-carboxylic acid as an anti-inflammatory compound” (KING FAISAL UNIVERSITY, priority 2023, dated 2024).

Molecular target: Bovine serum albumin (Bos taurus, UniProt P02769)
Assay: Bovine serum albumin (BSA) protein denaturation assay, in vitro anti-inflammatory activity
Type: biochemical
Method: Bovine Serum Albumin Assay (BSA) In vitro-inflammatory activities of the tested samples were determined using a modified method of the BSA assay reported by Williams et al. BSA solution (0.4%, w/v) was prepared in Tris Buffered Saline. The pH was adjusted to 6.4 with glacial acetic acid. Different dilutions of 20, 40, 60, 80, and 100 μg/mL of 7-(4-((5-(2-bromobenzylideneamino)-2-thioxo-1,3,4-thiadiazol-3(2H)-yl)methyl)piperazin-1-yl)-1-cyclopropyl-6-fluoro-4-oxo-1,4-dihydroquinoline-3-carboxylic acid (IV) the stock solutions were added to test tubes containing 1 mL of 0.4%, w/v BSA buffer solution. Both negative (solvent) and positive (aspirin) controls were assayed in a similar manner. The solutions were then heated in a water bath at 72° C. for 10 minutes and cooled for 20 minutes under laboratory conditions. The turbidity of the solutions (level of protein precipitation) was measured at 660 nm in Spectrophotometer (V-770 UV-Visible/NIR Spectrophotometer). The percentage inhibition of precipitation (protein denaturation) was determined relative to the negative control using the following equation: [formula] % Anti-Denaturation Activity=% Inhibition of Protein Denaturation=% Anti-inflammatory Activity

[1] = read-out: % Inhibition of protein denaturation (Bovine serum albumin)

Sequence of Bovine serum albumin (P02769 25-607): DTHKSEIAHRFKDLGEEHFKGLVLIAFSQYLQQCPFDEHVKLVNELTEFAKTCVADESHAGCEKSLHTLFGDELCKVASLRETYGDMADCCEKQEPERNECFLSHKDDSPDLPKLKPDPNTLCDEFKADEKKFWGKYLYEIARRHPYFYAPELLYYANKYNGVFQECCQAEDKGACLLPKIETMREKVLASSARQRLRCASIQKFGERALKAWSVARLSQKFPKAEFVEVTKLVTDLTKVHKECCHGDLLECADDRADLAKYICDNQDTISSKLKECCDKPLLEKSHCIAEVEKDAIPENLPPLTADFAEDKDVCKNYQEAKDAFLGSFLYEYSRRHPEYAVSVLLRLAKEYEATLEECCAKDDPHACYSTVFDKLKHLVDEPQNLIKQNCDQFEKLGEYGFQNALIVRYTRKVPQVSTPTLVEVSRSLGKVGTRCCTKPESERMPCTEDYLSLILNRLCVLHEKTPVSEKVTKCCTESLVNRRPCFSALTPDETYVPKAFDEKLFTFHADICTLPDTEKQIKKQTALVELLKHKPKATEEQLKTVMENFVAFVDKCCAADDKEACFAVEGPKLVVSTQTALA

in vitro anti-inflammatory activity (in words) (BSA denaturation assay): considerable anti-inflammatory effect | inhibition at 20 µg/mL [1]: 62.6% | inhibition at 40 µg/mL [1]: 73.1% | inhibition at 60 µg/mL [1]: 75.2% | inhibition at 80 µg/mL [1]: 82% | inhibition at 100 µg/mL [1]: 84.8%
Compound: O=C(O)c1cn(C2CC2)c2cc(N3CCN(Cn4nc(N=Cc5ccccc5Br)sc4=S)CC3)c(F)cc2c1=O [IV, 7-(4-((5-(2-bromobenzylideneamino)-2-thioxo-1,3,4-thiadiazol-3(2H)-yl)methyl)piperazin-1-yl)-1-cyclopropyl-6-fluoro-4-oxo-1,4-dihydroquinoline-3-carboxylic acid]
